Activity calls are given as the source filed them. The calls are words filed in the database; no cut-off is given here.

The inhibition is how much of the control response was suppressed.

Assay [1] deals with T1, Polyunsaturated fatty acid 5-lipoxygenase (Homo sapiens) (UniProt P09917).
T1 sequence (whole entry): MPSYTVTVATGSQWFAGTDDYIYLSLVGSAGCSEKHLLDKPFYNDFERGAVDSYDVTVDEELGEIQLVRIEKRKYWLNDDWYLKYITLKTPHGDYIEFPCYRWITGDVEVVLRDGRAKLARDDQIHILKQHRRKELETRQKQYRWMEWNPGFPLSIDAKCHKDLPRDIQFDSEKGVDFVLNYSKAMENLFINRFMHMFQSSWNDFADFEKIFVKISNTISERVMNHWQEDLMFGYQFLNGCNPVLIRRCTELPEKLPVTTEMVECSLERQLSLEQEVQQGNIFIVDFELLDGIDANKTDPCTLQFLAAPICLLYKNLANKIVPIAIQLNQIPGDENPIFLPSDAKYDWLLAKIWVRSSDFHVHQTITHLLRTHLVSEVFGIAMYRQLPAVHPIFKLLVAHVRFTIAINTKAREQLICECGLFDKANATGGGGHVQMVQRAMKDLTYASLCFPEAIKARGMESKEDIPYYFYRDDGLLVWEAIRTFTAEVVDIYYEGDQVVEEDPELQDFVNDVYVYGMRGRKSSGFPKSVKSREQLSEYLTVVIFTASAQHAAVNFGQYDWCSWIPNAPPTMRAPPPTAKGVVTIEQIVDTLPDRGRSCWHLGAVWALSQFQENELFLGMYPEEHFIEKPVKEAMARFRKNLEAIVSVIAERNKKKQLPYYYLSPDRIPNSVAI
Nature of the assay: Inhibition of human recombinant 5-LOX expressed in Escherichia coli BL21(DE3) assessed as enzyme remaining activity at 10 uM using arachidonic acid as substrate preincubated with compound for 15 mins followed by substrate and CaCl2 addition measured after 10 mins by RP-HPLC analysis relative to control. The following applies: time 25.0 min.

Assay [2] has as its target T1, Polyunsaturated fatty acid 5-lipoxygenase (Homo sapiens). Nature of the assay: Inhibition of 5-LOX in human Neutrophil assessed as enzyme remaining activity at 10 uM preincubated with compound for 15 mins followed by A23187 addition measured after 10 mins by RP-HPLC analysis relative to control. The assay is classed as cell-based. The following applies: time 25.0 min.

For assay [3] the target is unchanged. Nature of the assay: Inhibition of 5-LOX in human Neutrophil assessed as enzyme remaining activity at 10 uM using arachidonic acid as substrate preincubated with compound for 15 mins followed by substrate and A23187 addition measured after 10 mins by RP-HPLC analysis relative to control. The assay is classed as cell-based. The following applies: time 25.0 min.

The target in assay [4] is T2, Prostaglandin E synthase (Homo sapiens) (UniProt O14684).
T2 sequence (whole entry): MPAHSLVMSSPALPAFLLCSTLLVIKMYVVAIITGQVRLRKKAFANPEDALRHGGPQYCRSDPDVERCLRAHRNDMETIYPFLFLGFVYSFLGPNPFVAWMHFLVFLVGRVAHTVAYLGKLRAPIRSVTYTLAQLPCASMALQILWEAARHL
Nature of the assay: Inhibition of human mPGES-1 assessed as enzyme remaining activity at 10 uM relative to control.

The target in assay [5] is T3, Bifunctional epoxide hydrolase 2 (Homo sapiens) (UniProt P34913).
T3 sequence (whole entry): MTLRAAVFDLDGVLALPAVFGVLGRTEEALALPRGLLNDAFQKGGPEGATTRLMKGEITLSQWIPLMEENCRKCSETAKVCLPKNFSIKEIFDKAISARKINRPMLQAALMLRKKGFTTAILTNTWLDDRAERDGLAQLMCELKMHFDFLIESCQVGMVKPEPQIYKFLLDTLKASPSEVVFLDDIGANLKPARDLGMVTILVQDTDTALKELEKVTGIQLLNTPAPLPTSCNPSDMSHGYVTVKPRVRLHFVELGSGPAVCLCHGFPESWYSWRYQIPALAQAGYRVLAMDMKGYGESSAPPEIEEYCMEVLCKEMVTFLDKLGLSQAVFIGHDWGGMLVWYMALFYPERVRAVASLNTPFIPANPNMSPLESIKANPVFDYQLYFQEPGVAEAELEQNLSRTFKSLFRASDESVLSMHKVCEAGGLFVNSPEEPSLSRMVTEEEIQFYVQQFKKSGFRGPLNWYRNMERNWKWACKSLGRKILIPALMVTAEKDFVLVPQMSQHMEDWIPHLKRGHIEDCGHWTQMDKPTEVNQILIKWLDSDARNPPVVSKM
Nature of the assay: Inhibition of human sEH assessed as enzyme remaining activity at 10 uM relative to control.

For assay [6], the target named is T1, Polyunsaturated fatty acid 5-lipoxygenase (Homo sapiens). Nature of the assay: Inhibition of 5-LOX in human Neutrophil at 10 uM preincubated with compound for 15 mins followed by A23187 addition measured after 10 mins by RP-HPLC analysis relative to control. Type of assay: cell-based. The following applies: time 25.0 min.
Assay [7] deals with T3, Bifunctional epoxide hydrolase 2 (Homo sapiens). Nature of the assay: Inhibition of human sEH at 10 uM relative to control.
In assay [8] the target is T2, Prostaglandin E synthase (Homo sapiens). Nature of the assay: Inhibition of human mPGES-1 at 10 uM relative to control.

Consider `O=C(NCc1ccco1)Nc1cccc(-c2ccccc2)c1`, for which the Activity turned out to be 96.4% in assay [1]; 97% in assay [2]; 92.4% in assay [3]; 88.1% in assay [4]; 91.4% in assay [5]. Besides, the inhibition result in assay [6] and in assay [8] was “inactive” each time. Further, the inhibition in assay [7] is > 35%.
For `O=C(O)c1ccccc1C(=O)OC1CCc2ccccc2C1` (centres undefined), the Activity in assay [1] turned out to be 110%; in assay [2], 105%; in assay [3] it was 103%; in assay [4], 86.5%; in assay [5], 87.4%. Also, the inhibition entry in assay [6] and in assay [8] was “inactive” each time. Also, the inhibition in assay [7] is > 35%.
Turning to `Cc1cc(=O)oc(C)c1C(=O)Oc1ccc2ccccc2c1`, the Activity amounted to 91.1% in assay [1]; 87.9% in assay [2]; 79.5% in assay [3]; 88.2% in assay [4]; 75.7% in assay [5]. The inhibition entry in assay [6] and in assay [8] was “inactive” each time. The inhibition in assay [7] is > 35%.
On to `NS(=O)(=O)c1ccc(NCc2cnc3ccccc3c2)cc1`, for which the Activity in assay [1] was 96.5%; in assay [2], 90.6%; in assay [3], 95.3%; in assay [4], 86.3%; in assay [5], 112%. Also, the inhibition entry in assay [6] and in assay [8] was “inactive” throughout. Besides, in assay [7], the inhibition is > 35%.
Take `NNC(=O)CCc1ccc2ccc3ccccc3c2c1`: the Activity turned out to be 75.1% in assay [1]; 80.2% in assay [2]; 93.1% in assay [3]; 80.5% in assay [4]; 92.9% in assay [5]. The inhibition entry in assay [6] and in assay [8] was “inactive” in each case. Besides, the inhibition in assay [7] is > 35%.
In the case of `O=C(c1nc2ccc(Cl)cc2nc1O)C(O)c1ccc2c(c1)OCO2` (centres undefined), the Activity was determined as 81.2% in assay [1]; 101% in assay [2]; 90.7% in assay [3]; 89.4% in assay [4]; 93.8% in assay [5]. For the same compound, the inhibition entry in assay [6] and in assay [8] was “inactive” in each case. In addition, the inhibition in assay [7] was > 35%.
With `O=C(O)c1cnc2cc(OCCc3ccc(F)cc3)ccc2c1O`, the Activity in assay [1] turned out to be 66.9%; in assay [2], 89.1%; in assay [3] it was 87.6%; in assay [4], 75.9%; in assay [5] it was 72.5%. For the same compound, the inhibition entry in assay [6] and in assay [8] was “inactive” each time. The inhibition in assay [7] is > 35%.
`O=C(/C=C/c1ccccc1)NCCC1(O)C(=O)Nc2ccccc21` (centres undefined): the Activity in assay [4] is 98.2%; in assay [5] it was 88.2%. In addition, the inhibition result in assay [6] and in assay [8] was “inactive” each time. In assay [7], the inhibition was > 35%.
As to `CC(=O)c1cccc(NC(=O)Oc2ccc3c(C)cc(=O)oc3c2)c1`, the Activity in assay [1] is 115%; in assay [2], 104%; in assay [3] it was 106%; in assay [4], 93.4%; in assay [5] it was 196%. Moreover, the inhibition result in assay [6] and in assay [8] was “inactive” in each case. Besides, the inhibition in assay [7] is > 35%.
As for `N=c1[nH]nc2nc(CC(=O)c3ccc4ccccc4c3)c(=O)[nH]n12`, the inhibition result in assay [6] and in assay [8] was “inactive” in each case. Moreover, the inhibition in assay [7] is > 35%.
With `O=C1Nc2ccccc2/C1=N/NS(=O)(=O)c1ccc(C(=O)O)cc1`, the Activity is 105% in assay [1]; 93.1% in assay [2]; 88.2% in assay [3]; 94.2% in assay [4]; 111% in assay [5]. For the same compound, the inhibition entry in assay [6] and in assay [8] was “inactive” throughout. The inhibition in assay [7] is > 35%.
Regarding `O=C1c2ccccc2C(=O)N1CCc1nc(-c2ccccc2)c[nH]1`, the Activity came out at 90.4% in assay [1]; 100% in assay [2]; 99.2% in assay [3]; 92.5% in assay [4]; 41.5% in assay [5]. Also, the inhibition entry in assay [6] and in assay [8] was “inactive” each time. In assay [7], this compound yielded an inhibition of 58%.
As to `O=C(c1ccc2ccccc2n1)C(O)c1ccc2ccccc2n1` (centres undefined), the results for the Activity in assay [1], in assay [2] and in assay [3] were 99.8%, 111% and 99.6%, respectively. Also, the inhibition result in assay [6] and in assay [8] was “inactive” each time. The inhibition in assay [7] was > 35%.
Turning to `CC(=O)c1ccc(NCN2C(=O)c3ccccc3C2=O)cc1`, the Activity in assay [1] stood at 97.2%; in assay [2] it was 72.8%; in assay [3], 91.8%; in assay [4], 47.6%; in assay [5], 102%. Also, the inhibition result in assay [6] was “inactive”. The inhibition in assay [7] is > 35%; in assay [8] it was > 50%.
Consider `CC1CCc2c(c(CC3CC(=O)NC(=O)C3)nn2-c2ccccc2)C1` (centres undefined), for which the Activity in assay [1] worked out at 91.7%; in assay [2], 95.6%; in assay [3], 101%; in assay [4], 89.6%; in assay [5] it was 86.2%. The inhibition result in assay [6] and in assay [8] was “inactive” in each case. Also, the inhibition in assay [7] was > 35%.
Take `O=C1C(=O)C(CCc2ccccc2)C(=O)/C1=C/c1ccccc1` (centres undefined): the Activity in assay [1] is 110%; in assay [2], 105%; in assay [3], 80.6%; in assay [4] it was 27.4%; in assay [5], 101%. For the same compound, the inhibition result in assay [6] was “inactive”. Also, the inhibition in assay [7] is > 35%; in assay [8], > 50%.
`N=C(N)/N=C(/C=C/c1ccccc1)CC1OC(=O)c2ccccc21` (centres undefined): the Activity in assay [1] stood at 58.3%; in assay [2], 85.5%; in assay [3] it was 68%; in assay [4], 40.9%; in assay [5], 92.9%. Moreover, in assay [6], the inhibition entry was “inactive”. In addition, the results for the inhibition in assay [7] and in assay [8] were > 35% and > 50%, respectively.
For `O=C1CCC(CCc2nc3ccccc3[nH]2)(c2ccccc2)C(=O)N1` (centres undefined), the Activity in assay [1] turned out to be 106%; in assay [2] it was 102%; in assay [3] it was 110%; in assay [4] it was 92.7%; in assay [5] it was 98.7%. In addition, the inhibition entry in assay [6] and in assay [8] was “inactive” throughout. The inhibition in assay [7] is > 35%.
In the case of `Cc1ccn(C(=O)C2=Cc3ccccc3OC2)c(=N)c1`, the values for the Activity in assay [4] and in assay [5] were 84.3% and 121%, respectively. The inhibition entry in assay [6] and in assay [8] was “inactive” each time. In assay [7], the inhibition was > 35%.
Consider `O=C(O)c1cc(O)c2cc(Cc3ccccc3)ccc2n1`, for which the Activity in assay [4] is 98.3%; in assay [5], 147%. The inhibition result in assay [6] and in assay [8] was “inactive” in each case. Also, the inhibition in assay [7] was > 35%.
